This passage reports melting point, EC50 and Ki results from patent US8815919B2, “Oxadiazole derivatives” (Merck Serono SA, priority 2009, dated 2014).

Counter-ions that a name gives are not always drawn. Like-named read-outs stand apart in the source and are kept apart here.

Series [1] has as its target T1, S1P3 (Homo sapiens, UniProt Q99500). The series can be described thus: 35S-GTPγS binding on membranes of CHO cells expressing S1P3. The series is classed as biochemical. Conditions: read-out: S1P3/GTPG EC50. As to the method: (§1) Membranes were prepared from CHO cells expressing S1P1 or S1P3 for use in ligand and […] binding studies. Cells were suspended in 50 mM TRIS, pH 7.4, 2 mM EDTA, 250 mM Sucrose (buffer A) and 1× Complete protease inhibitor cocktail (Roche), and disrupted at 4° C. by N2 decompression using a cell disruption bomb (Parr Instrument). Following centrifugation at 1000 RPM for 10 min at 4° C., the supernatant was diluted (2×) in buffer A and centrifuged again at 19000 RPM for 75 min at 4° C. The pellet was then suspended in 10 mM HEPES, pH 7.4, 1 mM EDTA, 250 mM Sucrose (Buffer B), and 1× Complete EDTA-free protease inhibitor cocktail and homogenized using a potter. Membranes were flash frozen in liquid N2 and stored at −80° C.
(§2) Membranes (1 to 10 μg protein) prepared as described above, were incubated in 96-well Scintiplates (PerkinElmer) with test compounds diluted in DMSO, in 140 μl of 20 mM HEPES, pH 7.4, 10 mM MgCl2, 2 μg/well Saponin, 0.2% fatty acid free BSA (Assay buffer), 125 mM NaCl and 1.5 μM GDP. The assay was initiated with the addition of 60 μl of 1.5 nM [35S]-GTPγS (1100 Ci/mmol; GE Healthcare) in assay buffer. After 60 min incubation at 30° C. on a shaker, plates were centrifuged for 10 min at 2000 RPM. Supernatant was discarded and membrane bound radioactivity was measured on a PerkinElmer 1450 MicroBeta counter. Triplicate samples were averaged and expressed as % response relative to S1P activation in absence of compound (n=2).
(§3) The “potency” or the “activity” of the compounds is determined by the EC50 values as evaluated in the above described 35S-GTPγS binding assay.

For series [2], the target named is T2, S1P1 (Homo sapiens, UniProt P21453). The series can be described thus: Receptor binding assay, [33P]sphingosine 1-phosphate competition, S1P1 membranes, WGA SPA beads. Summed up: (§4)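 Competition of [33P]S1P ([…]) on CHO cell membranes with WGA SPA beads in 50 mM HEPES pH 7.5, 5 mM MgCl2, 100 mM NaCl, 0.4% fatty acid-free BSA; 60 min at RT. Triplicates normalised to total binding and nonspecific binding (1000-fold excess unlabeled S1P).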
Target sequence in this assay (P21453 whole entry, species assumed): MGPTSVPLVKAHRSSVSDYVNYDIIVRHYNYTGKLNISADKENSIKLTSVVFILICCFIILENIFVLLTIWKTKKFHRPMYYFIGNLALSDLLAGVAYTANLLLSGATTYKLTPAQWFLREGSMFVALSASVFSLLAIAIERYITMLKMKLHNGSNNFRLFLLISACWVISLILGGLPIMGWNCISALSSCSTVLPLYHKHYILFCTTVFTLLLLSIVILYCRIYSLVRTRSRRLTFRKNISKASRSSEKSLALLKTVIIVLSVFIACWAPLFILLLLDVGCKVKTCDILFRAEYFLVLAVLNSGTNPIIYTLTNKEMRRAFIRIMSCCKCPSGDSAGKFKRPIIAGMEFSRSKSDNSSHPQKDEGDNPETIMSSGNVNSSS

Series [3] concerns the target T2, S1P1. Put plainly: 35S-GTPγS binding on membranes of CHO cells expressing S1P1. The series is classed as biochemical. Particulars: read-out: S1P1/GTPG EC50. The procedure:
as §1, §2, §3
Target sequence in this assay (P21453 whole entry, species assumed): as above
A general note: GTPγS is a poorly hydrolysed GTP analogue; its binding reports G protein activation.

Series [4] concerns the target T1, S1P3. The series can be described thus: Receptor binding assay, [33P]sphingosine 1-phosphate competition, S1P3 membranes, WGA SPA beads. In outline:
as §4

Series [5] addresses T2, S1P1. Put plainly: S1P1 internalization assay in S1P1-U2OS cells (S1P1-EGFP), cell imaging. Particulars: 1 hour incubation. The format is cell-based. Also on record: host or cells: U2OS (human bone osteosarcoma epithelial cells), CMV promoter, geneticin selection. In outline: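 U2OS cells stably expressing human S1P1-EGFP, plated overnight in 1% FCS medium, then serum-starved 2 h in 0.1% fatty-acid-free BSA before 1 h compound exposure at 37 °C. After PFA fixation and Hoechst staining, internalization imaged as EGFP spot count per nucleus.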
Target sequence in this assay (P21453 whole entry): as the sequence (P21453 whole entry, species assumed) above

Where [6] appears, read: 96 well-plate, read-out: S1P1 binding Ki (M) (96 well-plate).
Where [7] appears, read: 384 well-plate, read-out: S1P3 binding Ki (M) (384 well-plate).
Setting [8] is: 96 well-plate, read-out: S1P3 binding Ki (M) (96 well-plate).

T1 sequence (Q99500 whole entry, species assumed): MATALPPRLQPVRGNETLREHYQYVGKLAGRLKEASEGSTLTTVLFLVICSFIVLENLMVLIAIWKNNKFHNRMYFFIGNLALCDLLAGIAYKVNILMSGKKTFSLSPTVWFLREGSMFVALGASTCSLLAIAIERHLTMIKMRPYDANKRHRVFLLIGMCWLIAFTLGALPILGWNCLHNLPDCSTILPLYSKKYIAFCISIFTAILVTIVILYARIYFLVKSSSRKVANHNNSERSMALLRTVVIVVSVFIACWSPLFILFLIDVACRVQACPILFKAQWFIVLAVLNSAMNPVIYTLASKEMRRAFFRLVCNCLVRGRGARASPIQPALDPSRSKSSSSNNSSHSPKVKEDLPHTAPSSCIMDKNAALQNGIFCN

In general, melting point refers to the temperature of the solid-liquid transition. `COC(C)c1cc(-c2nc(-c3ccc(CN(C)CC(=O)O)cc3)no2)ccc1-c1ccccc1C` (stereo not drawn) (as salt: hydrochloride) (hydrate or solvate) [Example 140, N-(4-{5-[2-(1-methoxyethyl)-2′-methylbiphenyl-4-yl]-1,2,4-oxadiazol-3-yl}benzyl)-N-methylglycine, hydrochloride salt] had a melting point of 179 to 181 °C.

With `COCc1cc(-c2nc(-c3cccc(CN(C)CC(=O)O)c3)no2)ccc1-c1cccc(F)c1C` (as salt: hydrochloride) [Example 35, N-(3-{5-[3′-fluoro-2-(methoxymethyl)-2′-methylbiphenyl-4-yl]-1,2,4-oxadiazol-3-yl}benzyl)-N-methylglycine, hydrochloride salt], the melting point fell in the range of 216 to 218 °C.

With `COCc1cc(-c2nc(-c3cccc(CN(C)CC(=O)O)c3)no2)ccc1-c1ccc(F)cc1C` (as salt: hydrochloride) [Example 36, N-(3-{5-[4′-fluoro-2-(methoxymethyl)-2′-methylbiphenyl-4-yl]-1,2,4-oxadiazol-3-yl}benzyl)-N-methylglycine, hydrochloride salt], the melting point was 214 to 216 °C.

A word on the Ki: it is a dissociation constant, usually derived from enzyme kinetics or from competition with a known ligand. As for `COCc1cc(-c2nc(-c3cccc(COCC(=O)O)c3)no2)ccc1N1CCCCC1C` (stereo not drawn) [Example 4, [(3-{5-[3-(methoxymethyl)-4-(2-methylpiperidin-1-yl)phenyl]-1,2,4-oxadiazol-3-yl}benzyl)oxy]acetic acid, hydrochloride salt], the EC50 on S1P3 [1] was 313 nM; on S1P1 [3], 1.05 nM. Moreover, the Ki on S1P1 [2] (setting [6]) was 4.76e-10 M; on S1P3 [4] (setting [7]), 7.53e-07 M.

On to `COCc1cc(-c2nc(-c3cccc(S(C)(=O)=O)c3)no2)ccc1N1CCCCC1C` (stereo not drawn) [Example 6, 1-(2-(methoxymethyl)-4-{3-[3-(methylsulfonyl)phenyl]-1,2,4-oxadiazol-5-yl}phenyl)-2-methylpiperidine, hydrochloride salt], for which the EC50 stood at 4.39 nM on S1P1 [5], 2280 nM at S1P3 [1] and 1.9 nM at S1P1 [3]. The Ki at S1P1 [2] (setting [6]) is 1.24e-09 M.

With `COCc1cc(-c2nc(-c3cccc(COCCC(=O)O)c3)no2)ccc1-c1ccccc1C` [Example 7, 3-[(3-{5-[2-(methoxymethyl)-2′-methylbiphenyl-4-yl]-1,2,4-oxadiazol-3-yl}benzyl)oxy]propanoic acid], the EC50 was 25.5 nM on S1P1 [5], 2010 nM at S1P3 [1] and 8.05 nM on S1P1 [3]. Further, the Ki at S1P1 [2] (setting [6]) was found to be 3.29e-09 M.

With `COCc1cc(-c2nc(-c3cccc(CN(C)CC(=O)O)c3)no2)ccc1-c1ccccc1F` [Example 10, N-(3-{5-[2′-fluoro-2-(methoxymethyl)biphenyl-4-yl]-1,2,4-oxadiazol-3-yl}benzyl)-N-methylolycine, hydrochloride salt], the EC50 at S1P1 [5] was determined as 3.31 nM; on S1P3 [1], 130 nM; on S1P1 [3] it was 0.907 nM. Further, the figures for the Ki on S1P1 [2] (setting [6]), on S1P3 [4] (setting [8]) and at S1P3 [4] (setting [7]) were 1.79e-10 M, 2.33e-08 M and 1.22e-07 M, respectively.

On to `COCc1cc(-c2nc(-c3cccc(CN(C)CC(=O)O)c3)no2)ccc1-c1ccccc1Cl` [Example 11, N-(3-{5-[2′-chloro-2-(methoxymethyl)biphenyl-4-yl]-1,2,4-oxadiazol-3-yl}benzyl)-N-methylglycine, hydrochloride salt], for which the values for the EC50 at S1P1 [5], at S1P3 [1] and at S1P1 [3] were 10.6 nM, 673 nM and 2.74 nM, respectively. Moreover, on S1P1 [2] (setting [6]), the Ki was found to be 6.21e-10 M.

As to `CC1CCCCN1c1ccc(-c2nc(-c3cccc(COCCC(=O)O)c3)no2)cc1C(F)(F)F` (stereo not drawn) [Example 12, 3-[(3-{5-[4-(2-methylpiperidin-1-yl)-3-(trifluoromethyl)phenyl]-1,2,4-oxadiazol-3-yl}benzyl)oxy]propanoic acid, hydrochloride salt], the EC50 came out at 9.84 nM on S1P1 [5], 692 nM at S1P3 [1] and 4.61 nM on S1P1 [3]. For the same molecule, the Ki at S1P1 [2] (setting [6]) was found to be 3.08e-09 M.

In the case of `CC1CCCCN1c1ccc(-c2nc(-c3cccc(CN(C)CC(=O)O)c3)no2)cc1C(F)(F)F` (stereo not drawn) [Example 13, N-methyl-N-(3-{5-[4-(2-methylpiperidin-1-yl)-3-(trifluoromethyl)phenyl]-1,2,4-oxadiazol-3-yl}benzyl)glycine], the EC50 stood at 7.38 nM on S1P1 [5], 470 nM on S1P3 [1] and 0.96 nM at S1P1 [3]. Besides, the Ki came to 4.58e-10 M on S1P1 [2] (setting [6]), 8.95e-08 M on S1P3 [4] (setting [8]) and 2.75e-07 M at S1P3 [4] (setting [7]).

With `CCc1ccccc1-c1ccc(-c2nc(-c3ccc(C(=O)NCCC(=O)O)c(F)c3)no2)cc1COC` [Example 16, N-(4-{5-[2′-ethyl-2-(methoxymethyl)biphenyl-4-yl]-1,2,4-oxadiazol-3-yl}-2-fluorobenzoyl)-beta-alanine], the EC50 is 531 nM at S1P3 [1] and 6.07 nM at S1P1 [3]. Besides, at S1P1 [2] (setting [6]), the Ki was found to be 2.22e-09 M.

`CCC1CCCCN1c1ccc(-c2nc(-c3cccc(CN(C)CC(=O)O)c3)no2)cc1COC` (stereo not drawn) [Example 17, N-(3-{5-[4-(2-ethylpiperidin-1-yl)-3-(methoxymethyl)phenyl]-1,2,4-oxadiazol-3-yl}benzyl)-N-methylglycine, hydrochloride salt]: the EC50 on S1P3 [1] was determined as 255 nM; on S1P1 [3], 1.41 nM. In addition, the Ki on S1P1 [2] (setting [6]) was found to be 4.46e-10 M.

With `CCc1ccccc1-c1ccc(-c2nc(-c3cccc(CNCCC(=O)O)c3)no2)cc1COC` [Example 18, N-(3-{5-[2′-ethyl-2-(methoxymethyl)biphenyl-4-yl]-1,2,4-oxadiazol-3-yl}benzyl)-beta-alanine, hydrochloride salt], the EC50 was determined as 4.96 nM on S1P3 [1] and 0.47 nM on S1P1 [3]. The Ki on S1P1 [2] (setting [6]) stood at 1.68e-10 M.

As for `COCc1cc(-c2nc(-c3ccc(F)c(CN(C)CCC(=O)O)c3)no2)ccc1N1CCCCC1C` (stereo not drawn) [Example 19, N-(2-fluoro-5-{5-[3-(methoxymethyl)-4-(2-methylpiperidin-1-yl)phenyl]-1,2,4-oxadiazol-3-yl}benzyl)-N-methyl-beta-alanine, dihydrochloride salt], the EC50 on S1P3 [1] is 34.4 nM; at S1P1 [3] it was 0.545 nM. Moreover, on S1P1 [2] (setting [6]), the Ki came to 1.94e-10 M.

On to `COCc1cc(-c2nc(-c3cc(F)cc(CN(C)CCC(=O)O)c3)no2)ccc1-c1ccccc1C` [Example 21, N-(3-fluoro-5-{5-[2-(methoxymethyl)-2′-methylbiphenyl-4-yl]-1,2,4-oxadiazol-3-yl}benzyl)-N-methyl-beta-alanine, hydrochloride salt], for which the results for the EC50 on S1P1 [5], on S1P3 [1] and on S1P1 [3] were 4.52 nM, 15 nM and 0.332 nM, respectively. The Ki stood at 1.17e-10 M at S1P1 [2] (setting [6]); 9.99e-10 M at S1P1 [2] (384 well-plate, read-out: S1P1 binding Ki (M) (384 well-plate)); 1.13e-08 M on S1P3 [4] (setting [8]); 1.56e-08 M at S1P3 [4] (setting [7]).

For the molecule `COCc1cc(-c2nc(-c3ccc(OCCO)cc3)no2)ccc1-c1ccccc1C` [Example 23, 2-(4-{5-[2-(methoxymethyl)-2′-methylbiphenyl-4-yl]-1,2,4-oxadiazol-3-yl}phenoxy)ethanol], the EC50 on S1P3 [1] was found to be 199 nM; on S1P1 [3], 7.07 nM. Besides, on S1P1 [2] (setting [6]), the Ki is 2.17e-09 M.

With `COCc1cc(-c2nc(-c3cccc(CC(=O)NCCNC(C)=O)c3)no2)ccc1-c1ccccc1C` [Example 25, N-[2-(acetylamino)ethyl]-2-(3-{5-[2-(methoxymethyl)-2′-methylbiphenyl-4-yl]-1,2,4-oxadiazol-3-yl}phenyl)acetamide], the EC50 on S1P3 [1] is 635 nM; at S1P1 [3], 7.08 nM. Also, the Ki at S1P1 [2] (setting [6]) was 8.51e-10 M.
